This note sets out measurements from patent US9096560B2, “5-heterocyclylalkyl-3-hydroxy-2-phenylcyclopent-2-enones as herbicides” (Syngenta Limited, priority 2008, dated 2015).

Holding throughout (format): in vivo
Experiment [1] relates to Echinochloa crus-galli (ECHCG). Description: Example B post-emergence herbicidal test, ECHCG. The settings on record: Echinochloa crus-galli, 312 h, rate 250 g/ha, evaluated after 13 days, scale 0-100, read-out: Post-emergence activity ECHCG (100=total damage to plant; 0=no damage to plant). Summed up:
(§1)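 Plants grown from seed in standard soil for 8 days in a glasshouse (24/16 °C day/night, 14 h light, 65% humidity), then sprayed with an aqueous solution from the active ingredient formulated in acetone/water (50:50) with 0.5% Tween 20. Damage scored after 13 days, 0 (none) to 100 (total).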

In experiment [2] the test system is Alopecurus myosuroides (ALOMY). Description: Example B post-emergence herbicidal test, ALOMY. To be noted: Alopecurus myosuroides, 312 h, rate 250 g/ha, evaluated after 13 days, scale 0-100, read-out: Post-emergence activity ALOMY (100=total damage to plant; 0=no damage to plant). Summed up: as §1
Experiment [3] relates to Lolium perenne (LOLPE). Description: Example B pre-emergence herbicidal test, LOLPE. The settings on record: Lolium perenne, 312 h, rate 250 g/ha, evaluated after 13 days, 100=total damage to plant, 0=no damage to plant. Summed up: (§2)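 Pre-emergence spray one day after sowing; vehicle acetone/water (50:50), 0.5% Tween 20. Percent damage (0 = no effect, 100 = plant killed) recorded 13 days later.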

Experiment [4] concerns Avena fatua (AVEFA). Description: Example B pre-emergence herbicidal test, AVEFA. The settings on record: Avena fatua, 312 h, rate 250 g/ha, evaluated after 13 days, 100=total damage to plant, 0=no damage to plant. Summed up:
as §2

Experiment [5] has as its system Echinochloa crus-galli (ECHCG). As to the kind of experiment: Example B pre-emergence herbicidal test, ECHCG. The settings on record: Echinochloa crus-galli, 312 h, rate 250 g/ha, evaluated after 13 days, 100=total damage to plant, 0=no damage to plant. Summed up:
as §2

Experiment [6] has as its system Lolium perenne (LOLPE). Description: Example B post-emergence herbicidal test, LOLPE. The settings on record: Lolium perenne, 312 h, rate 250 g/ha, evaluated after 13 days, scale 0-100, read-out: Post-emergence activity LOLPE (100=total damage to plant; 0=no damage to plant). Summed up: as §1
Experiment [7] deals with Avena fatua (AVEFA). As to the kind of experiment: Example B post-emergence herbicidal test, AVEFA. The settings on record: Avena fatua, 312 h, rate 250 g/ha, evaluated after 13 days, scale 0-100, read-out: Post-emergence activity AVEFA (100=total damage to plant; 0=no damage to plant). Summed up:
as §1

Experiment [8] has as its system Alopecurus myosuroides (ALOMY). Description: Example B pre-emergence herbicidal test, ALOMY. The settings on record: Alopecurus myosuroides, 312 h, rate 250 g/ha, evaluated after 13 days, 100=total damage to plant, 0=no damage to plant. Summed up:
as §2

As to `Cc1cc(C)c(C2C(=O)CC(CC3CCN(C(=O)c4cccs4)C3)C2=O)c(C)c1` (centres unmarked) [Compound T146], the pest or weed control at 250 g/ha came out at 70% in experiment [1]; 80% in experiment [2]; 90% with Lolium perenne (LOLPE) [3]; 50% with Avena fatua (AVEFA) [4]; 70% in experiment [5]; 80% with Lolium perenne (LOLPE) [6]. Further, the values for the pest or weed control at 250 g/ha (with Avena fatua (AVEFA) [7]; in experiment [8]) were 90% and 70%, respectively.

Consider `Cc1cc(C)c(C2C(=O)CC(CC3CCN(C(=O)c4ccco4)C3)C2=O)c(C)c1` (centres unmarked) [Compound T147], for which the pest or weed control at 250 g/ha in experiment [1] stood at 50%; in experiment [2], 60%; with Lolium perenne (LOLPE) [3] it was 30%; in the experiment with Avena fatua (AVEFA) [4], 10%; in experiment [5], 40%; in the experiment on Lolium perenne (LOLPE) [6], 40%. Further, the pest or weed control at 250 g/ha amounted to 70% in the experiment on Avena fatua (AVEFA) [7] and 50% in experiment [8].

Consider `Cc1cc(C)c(C2C(=O)CC(CC3CCN(C(=O)c4c(C)noc4C)C3)C2=O)c(C)c1` (centres unmarked) [Compound T148], for which the pest or weed control at 250 g/ha in experiment [1] came out at 60%; in experiment [2] it was 80%; in the experiment on Lolium perenne (LOLPE) [3] it was 50%; with Avena fatua (AVEFA) [4], 40%; in experiment [5], 30%; with Lolium perenne (LOLPE) [6] it was 70%. Moreover, the pest or weed control at 250 g/ha with Avena fatua (AVEFA) [7] is 100%; in experiment [8], 70%.

For the compound `COc1ccc(CC2C(=O)C(c3c(C)cc(C)cc3C)C(=O)C2CC2CCOC2)cc1` (centres unmarked) [Compound T149], the pest or weed control at 250 g/ha stood at 20% in experiment [1]; 30% in experiment [2]; 20% in the experiment with Lolium perenne (LOLPE) [3]; 10% in the experiment with Avena fatua (AVEFA) [4]; 30% in experiment [5]; 40% in the experiment on Lolium perenne (LOLPE) [6]. The pest or weed control at 250 g/ha worked out at 40% with Avena fatua (AVEFA) [7] and 30% in experiment [8].

In the case of `Cc1cc(C)c(C2C(=O)C(Cc3ccccc3)C(CC3CCOC3)C2=O)c(C)c1` (centres unmarked) [Compound T151], the pest or weed control at 250 g/ha in experiment [1] stood at 40%; in experiment [2], 30%; in the experiment with Lolium perenne (LOLPE) [3] it was 30%; with Avena fatua (AVEFA) [4], 10%; in experiment [5], 40%; in the experiment on Lolium perenne (LOLPE) [6], 20%. The values for the pest or weed control at 250 g/ha (in the experiment with Avena fatua (AVEFA) [7]; in experiment [8]) were 10% and 20%, respectively.

Regarding `Cc1cc(C)c(C2C(=O)CC(CC3CCOC3C)C2=O)c(C)c1` (centres unmarked) [Compound T156], the pest or weed control at 250 g/ha came to 70% in experiment [1]; 90% in experiment [2]; 100% with Lolium perenne (LOLPE) [3]; 70% in the experiment on Avena fatua (AVEFA) [4]; 100% in experiment [5]; 100% in the experiment on Lolium perenne (LOLPE) [6]. The pest or weed control at 250 g/ha with Avena fatua (AVEFA) [7] worked out at 90%; in experiment [8], 80%.

For `Cc1cc(-c2ccc(C(F)(F)F)cc2)cc(C)c1C1C(=O)CC(CC2CCOC2)C1=O` (centres unmarked) [Compound T157], the pest or weed control at 250 g/ha in experiment [1] was 60%; in experiment [2], 30%; in the experiment on Lolium perenne (LOLPE) [3], 10%; with Avena fatua (AVEFA) [4] it was 0%; in experiment [5], 40%; in the experiment with Lolium perenne (LOLPE) [6], 30%. Moreover, the pest or weed control at 250 g/ha was 50% in the experiment on Avena fatua (AVEFA) [7] and 10% in experiment [8].

For the compound `Cc1cc(-c2ccc(F)cc2)cc(C)c1C1C(=O)CC(CC2CCOC2)C1=O` (centres unmarked) [Compound T158], the pest or weed control at 250 g/ha is 100% in experiment [1]; 100% in experiment [2]; 90% in the experiment on Lolium perenne (LOLPE) [3]; 70% with Avena fatua (AVEFA) [4]; 100% in experiment [5]; 100% in the experiment on Lolium perenne (LOLPE) [6]. In addition, the pest or weed control at 250 g/ha in the experiment on Avena fatua (AVEFA) [7] was 100%; in experiment [8] it was 80%.

Regarding `Cc1cc(-c2ccccc2)cc(C)c1C1C(=O)CC(CC2CCOC2)C1=O` (centres unmarked) [Compound T159], the pest or weed control at 250 g/ha in experiment [1] was 100%; in experiment [2] it was 90%; with Lolium perenne (LOLPE) [3] it was 70%; with Avena fatua (AVEFA) [4], 30%; in experiment [5], 100%; in the experiment with Lolium perenne (LOLPE) [6], 100%. For the same compound, the pest or weed control at 250 g/ha with Avena fatua (AVEFA) [7] was 90%; in experiment [8] it was 50%.

With `Cc1cc(Br)cc(C)c1C1C(=O)CC(CC2CCOC2)C1=O` (centres unmarked) [Compound T160], the pest or weed control at 250 g/ha worked out at 70% in experiment [1]; 40% in experiment [2]; 90% in the experiment on Lolium perenne (LOLPE) [3]; 40% in the experiment on Avena fatua (AVEFA) [4]; 70% in experiment [5]; 100% with Lolium perenne (LOLPE) [6]. In addition, the pest or weed control at 250 g/ha with Avena fatua (AVEFA) [7] turned out to be 60%; in experiment [8], 30%.

As to `Cc1cc(C)c(C2C(=O)CC(CC3CCN(C(=O)C(F)(F)C(F)F)CC3)C2=O)c(C)c1` (centres unmarked) [Compound T161], the pest or weed control at 250 g/ha was 90% in experiment [1]; 70% in experiment [2]; 90% with Lolium perenne (LOLPE) [3]; 60% with Avena fatua (AVEFA) [4]; 100% in experiment [5]; 100% in the experiment with Lolium perenne (LOLPE) [6]. Further, the pest or weed control at 250 g/ha in the experiment with Avena fatua (AVEFA) [7] was 90%; in experiment [8], 30%.

Turning to `Cc1cc(C)c(C2C(=O)CC(CC3CCN(C(=O)C(F)(F)F)C3)C2=O)c(C)c1` (centres unmarked) [Compound T162], the pest or weed control at 250 g/ha in experiment [1] is 70%; in experiment [2] it was 60%; in the experiment on Lolium perenne (LOLPE) [3], 70%; in the experiment with Avena fatua (AVEFA) [4] it was 50%; in experiment [5] it was 50%; with Lolium perenne (LOLPE) [6], 90%. The pest or weed control at 250 g/ha in the experiment with Avena fatua (AVEFA) [7] was 80%; in experiment [8], 40%.

As to `Cc1cc(C)c(C2C(=O)CC(CC3CCN(C(=O)C(F)(F)F)CC3)C2=O)c(C)c1` (centres unmarked) [Compound T163], the pest or weed control at 250 g/ha stood at 90% in experiment [1]; 90% in experiment [2]; 80% in the experiment on Lolium perenne (LOLPE) [3]; 60% in the experiment with Avena fatua (AVEFA) [4]; 60% in experiment [5]; 100% with Lolium perenne (LOLPE) [6]. The results for the pest or weed control at 250 g/ha (in the experiment on Avena fatua (AVEFA) [7]; in experiment [8]) were 100% and 50%, respectively.
